Read-outs that look alike come from different tables or passages of the source. Marks after values point to notes of the source that are not given here.
What was measured:
[1] = Single ascending dose (SAD) study in healthy volunteers: safety and tolerability (TEAEs); format: in vivo, human
Experimental: To evaluate the safety and tolerability of single ascending doses of Compound I, 48 healthy volunteers (42 in the fasted state and 6 in the fed state) aged 18 to 55 years old were administered single ascending doses (50 mg to 2200 mg) of Compound I, while 16 healthy volunteers (14 in the fasted state and 2 in the fed state) aged 18 to 55 years old were administered placebo in a double blind, randomized, sequential manner.
Primary endpoints were safety and tolerability; key secondary endpoints included PK and effect of food (high-fat meal).
The few that were considered drug-related resolved with little to no intervention.

hemoglobin = biological target: T1, hemoglobin (Homo sapiens, UniProt P68871+P69905); experiment: Percent Hb occupancy after single doses, healthy volunteers; format: in vivo; conditions: for % Hb occupancy based on Cmax: mean
T1 construct: divided by the molar concentration of hemoglobin in RBCs; endogenous in cells; host or cells: red blood cells of healthy volunteers (in vivo)
T1 sequence (P69905 2-142 limits assumed): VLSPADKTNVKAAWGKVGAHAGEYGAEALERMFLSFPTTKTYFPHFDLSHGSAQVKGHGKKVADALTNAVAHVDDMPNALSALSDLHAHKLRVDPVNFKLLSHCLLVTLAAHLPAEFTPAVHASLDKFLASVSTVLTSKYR
T1 sequence (P68871 2-147 limits assumed): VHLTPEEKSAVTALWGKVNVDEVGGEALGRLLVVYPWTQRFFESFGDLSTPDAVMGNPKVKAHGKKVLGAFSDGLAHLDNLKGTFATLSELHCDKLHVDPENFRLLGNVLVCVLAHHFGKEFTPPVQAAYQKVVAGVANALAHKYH
Experimental: In some embodiments, the therapeutically effective amount is determined by measuring the percent of hemoglobin occupied by the compound, i.e., the percent Hb occupancy. The percent Hb occupancy is a measure of target engagement defined as the percentage of hemoglobin bound by a compound (e.g., Compound I) calculated as the molar concentration of the compound (e.g., Compound I) in RBCs divided by the molar concentration of hemoglobin in RBCs (the mean corpuscular hemoglobin concentration calculated from the hematology panel). The values for concentration of a compound (e.g., Compound I) in RBCs is calculated from the concentrations in whole blood and plasma, and the hematocrit.
Percent hemoglobin occupancy was calculated as follows, wherein MCHC refers to mean corpuscular hemoglobin concentration, and Hct refers to hematocrit: […]

[2] = MAD study in healthy volunteers: whole blood and plasma PK; format: in vivo, human; conditions: for AUC(0-t): read-out: AUC0-24; for concentration at 14 day: read-out: Cmin
Experimental: Another study was initiated in healthy volunteer aged 18-55 years old to evaluate the safety and tolerability of multiple ascending doses of Compound I. Four cohorts of 10 subjects each (n=7 Compound I, n=3 placebo) were evaluated in a sequential double-blind manner. To reach steady state levels each subject received a loading dose regimen for 3 or 4 days followed by once daily medication for up to 14 days. Primary endpoints were safety and tolerability; key secondary endpoints included PK and effect on electrocardiogram (ECG) parameters. Table 7 below provides an overview of the doses of Compound I or placebo that were used in each cohort.
Preliminary whole blood PK parameters (geometric mean and % CV) and hemoglobin occupancy in healthy volunteers of the 15 mg, 25 mg, 50 mg, and 75 mg MAD cohorts are summarized in Table 10.

red blood cells = experiment: Ektacytometry (Lorrca Oxygenscan) red blood cell deformability, SCD patients; format: in vivo, human
Text: An ektacytometer laser optical rotational red cell analyzer (Lorrca; RR Mechatronics, NL) was used to analyze deformability of red blood cells using a defined value of shear stress with an increasing osmotic gradient (Osmoscan) as well as a newer technology to subject these cells to gradual deoxygenation (Oxygenscan).

[3] = HV single 50 mg, blinded, n=8 incl. placebo
[4] = HV single 50 mg, unblinded, n=6
[5] = HV single 100 mg, blinded, n=8 incl. placebo
[6] = HV single 100 mg, unblinded, n=6
[7] = HV single 200 mg fed (high-fat meal), blinded, n=8 incl. placebo
[8] = HV single 200 mg fed (high-fat meal), unblinded, n=6
[9] = HV single 200 mg, blinded, n=8 incl. placebo
[10] = HV single 200 mg, unblinded, n=6
[11] = HV single 400 mg, blinded, n=8 incl. placebo
[12] = HV single 400 mg, unblinded, n=6
[13] = HV single 800 mg, blinded, n=8 incl. placebo
[14] = HV single 800 mg, unblinded, n=6
[15] = HV single 1400 mg, blinded, n=8 incl. placebo
[16] = HV single 1400 mg, unblinded, n=6
[17] = HV single 2200 mg, blinded, n=8 incl. placebo
[18] = HV single 2200 mg, unblinded, n=6

- % Hb occupancy based on Cmax (hemoglobin; HV single 50 mg): 0.88%
- % Hb occupancy based on Cmax (hemoglobin; HV single 100 mg): 1.9%
- % Hb occupancy based on Cmax (hemoglobin; HV single 200 mg): 3.8%
- % Hb occupancy based on Cmax (hemoglobin; HV single 400 mg): 9.5%
- % Hb occupancy based on Cmax (hemoglobin; HV single 800 mg): 16.8%
- % Hb occupancy based on Cmax (hemoglobin; HV single 1400 mg): 25%
- % Hb occupancy based on Cmax (hemoglobin; HV single 2200 mg): 43.9%
- difference in Hb occupancy between fasting and fed states (hemoglobin; HV, 200 mg single dose): no observable difference
- percent Hb occupancy, dependence on dose (hemoglobin; HV, single doses (FIG. 1)): dose-dependent increase
- B:P ratio (mean AUC0-24 blood:mean AUC0-24 plasma) ([2]; HV MAD Day 14, 75 mg QD maintenance): 140
- AUC(0-t) ([2]; human, HV MAD Day 14, 15 mg QD maintenance, whole blood): 2840 µg·h/mL
- concentration at 14 day ([2]; human, HV MAD Day 14, 25 mg QD maintenance, whole blood): 135 µg/mL
- Tmax ([2]; human, HV MAD Day 14, 50 mg QD maintenance, whole blood, median): 3 h
- AUC(0-t) ([2]; human, HV MAD Day 14, 50 mg QD maintenance, whole blood): 5140 µg·h/mL
- Cmax ([2]; human, HV MAD Day 14, 75 mg QD maintenance (loading 500/500/500/400 mg), whole blood): 308 µg/mL
- concentration at 14 day ([2]; human, HV MAD Day 14, 75 mg QD maintenance, whole blood): 297 µg/mL
SMILES: O=Cc1c(O)cccc1OC[C@@H]1COCCN1C(=O)c1cccnc1CCO [Compound I, (S)-2-hydroxy-6-((4-(2-(2-hydroxyethyl)nicotinoyl)morpholin-3-yl)methoxy)benzaldehyde]
- adverse events indicative of tissue hypoxia ([1]; HV SAD): no adverse events indicative of tissue hypoxia
- grade of adverse events (CTCAE v5.0) ([1]; HV SAD, blinded study): mostly grade 1 or 2
- Number of SAEs [1, 3]: 0
- Number of TEAEs [1, 3]: 14
- Number of TEAEs grade ≥ 3 [1, 3]: 0
- Number of TEAEs leading to study drug discontinuation [1, 3]: 0
- Number of drug-related TEAEs [1, 3]: 2
- Number of SAEs [1, 4]: 0
- Number of TEAEs [1, 4]: 11
- Number of TEAEs grade ≥ 3 [1, 4]: 0
- Number of TEAEs leading to study drug discontinuation [1, 4]: 0
- Number of drug-related TEAEs [1, 4]: 1
- Number of SAEs [1, 5]: 0
- Number of TEAEs [1, 5]: 13
- Number of TEAEs grade ≥ 3 [1, 5]: 0
- Number of TEAEs leading to study drug discontinuation [1, 5]: 0
- Number of drug-related TEAEs [1, 5]: 1
- Number of SAEs [1, 6]: 0
- Number of TEAEs [1, 6]: 10
- Number of TEAEs grade ≥ 3 [1, 6]: 0
- Number of TEAEs leading to study drug discontinuation [1, 6]: 0
- Number of drug-related TEAEs [1, 6]: 1
- Number of SAEs [1, 7]: 0
- Number of TEAEs [1, 7]: 8
- Number of TEAEs grade ≥ 3 [1, 7]: 1
- Number of TEAEs leading to study drug discontinuation [1, 7]: 0
- Number of drug-related TEAEs [1, 7]: 0
- Number of SAEs [1, 8]: 0
- Number of TEAEs [1, 8]: 7
- Number of TEAEs grade ≥ 3 [1, 8]: 1
- Number of TEAEs leading to study drug discontinuation [1, 8]: 0
- Number of drug-related TEAEs [1, 8]: 0
- Number of SAEs [1, 9]: 0
- Number of TEAEs [1, 9]: 16
- Number of TEAEs grade ≥ 3 [1, 9]: 0
- Number of TEAEs leading to study drug discontinuation [1, 9]: 0
- Number of drug-related TEAEs [1, 9]: 0
- Number of SAEs [1, 10]: 0
- Number of TEAEs [1, 10]: 15
- Number of TEAEs grade ≥ 3 [1, 10]: 0
- Number of TEAEs leading to study drug discontinuation [1, 10]: 0
- Number of drug-related TEAEs [1, 10]: 0
- Number of TEAEs [1, 11]: 23^
- Number of TEAEs grade ≥ 3 [1, 11]: 1^
- Number of TEAEs leading to study drug discontinuation [1, 11]: 0^
- Number of drug-related TEAEs [1, 11]: 1^
- Number of SAEs ([1]; HV single 400 mg, blinded, n=8 incl. placebo, SAE was a traumatic brain injury, not drug related): 1^c
- Number of TEAEs [1, 12]: 16^
- Number of TEAEs grade ≥ 3 [1, 12]: 1^
- Number of TEAEs leading to study drug discontinuation [1, 12]: 0^
- Number of drug-related TEAEs [1, 12]: 1^
- Number of SAEs ([1]; HV single 400 mg, unblinded, n=6, SAE was a traumatic brain injury, not drug related): 1^c
- Number of SAEs [1, 13]: 0
- Number of TEAEs [1, 13]: 14
- Number of TEAEs grade ≥ 3 [1, 13]: 0
- Number of TEAEs leading to study drug discontinuation [1, 13]: 0
- Number of drug-related TEAEs [1, 13]: 3
- Number of SAEs [1, 14]: 0
- Number of TEAEs [1, 14]: 10
- Number of TEAEs grade ≥ 3 [1, 14]: 0
- Number of TEAEs leading to study drug discontinuation [1, 14]: 0
- Number of drug-related TEAEs [1, 14]: 3
- Number of SAEs [1, 15]: 0
- Number of TEAEs [1, 15]: 29
- Number of TEAEs grade ≥ 3 [1, 15]: 0
- Number of TEAEs leading to study drug discontinuation [1, 15]: 0
- Number of drug-related TEAEs [1, 15]: 4
- Number of SAEs [1, 16]: 0
- Number of TEAEs [1, 16]: 26
- Number of TEAEs grade ≥ 3 [1, 16]: 0
- Number of TEAEs leading to study drug discontinuation [1, 16]: 0
- Number of drug-related TEAEs [1, 16]: 4
- Number of SAEs [1, 17]: 0
- Number of TEAEs [1, 17]: 17
- Number of TEAEs grade ≥ 3 [1, 17]: 0
- Number of TEAEs leading to study drug discontinuation [1, 17]: 0
- Number of drug-related TEAEs [1, 17]: 4
- Number of SAEs [1, 18]: 0
- Number of TEAEs [1, 18]: 18
- Number of TEAEs grade ≥ 3 [1, 18]: 0
- Number of TEAEs leading to study drug discontinuation [1, 18]: 0
- Number of drug-related TEAEs [1, 18]: 4
- Hb occupancies compared with voxelotor (hemoglobin; HV, single doses over a similar range): exceed those reported in healthy volunteers receiving single doses of voxelotor
- red blood cell health (Oxygenscan) (red blood cells; MAD-3 cohort SCD patients, 6 weeks (FIG. 13)): Improvement in red blood cell health
- red blood cell health by Oxygenscan testing (red blood cells; SCD patients, MAD-1 and MAD-2 (FIG. 9)): Improvements in red blood cell health were seen in all patients
